“Also recorded” adds a separate entry of the source.
Legend:
KCNQ5 = KCNQ5 (Homo sapiens, UniProt Q9NR82); test: TEVC of homomeric KCNQ5 expressed in Xenopus oocytes; type: cell-based; settings: read-out: EC50, KCNQ5 activation
From the text: (§1) We generated cRNA transcripts encoding human KCNQ1, KCNQ2, KCNQ3, KCNQ4, KCNQ5 or GLRA1 (NM_001146040) (GenScript, Piscataway, NJ, USA) by in vitro transcription using the T7 polymerase mMessage mMachine kit (Thermo Fisher Scientific), after vector linearization, from cDNA sub-cloned into plasmids incorporating Xenopus laevis β-globin 5′ and 3′ UTRs flanking the coding region to enhance translation and cRNA stability. We quantified cRNA by spectrophotometry. We generated mutant KCNQ2 and KCNQ3 cDNAs by site-directed mutagenesis using a QuikChange kit (Stratagene, San Diego, CA) and prepared the corresponding cRNAs as above. We injected defolliculated stage V and VI Xenopus laevis oocytes (Ecocyte Bioscience, Austin, TX and Xenoocyte, Dexter, MI) with KCNQ channel α subunit (5-20 ng) or GLRA1 (20 ng) cRNAs. We incubated the oocytes at 16 °C in Barth’s saline solution (Ecocyte Bioscience) containing penicillin and streptomycin, with daily washing, for 2–5 days prior to two-electrode voltage-clamp (TEVC) recording.
(§2) We performed TEVC at room temperature using an OC-725C amplifier (Warner Instruments, Hamden, CT) and pClamp10 software (Molecular Devices, Sunnyvale, CA) 2–5 days after cRNA injection as described in the section above. For recording, oocytes were placed in a small-volume oocyte bath (Warner) and viewed them with a dissection microscope. Chemicals were sourced from Sigma, Matrix Scientific and Santa Cruz. […] All stock solutions were diluted in bath solution on the day of experiments. KCNQ2/3 channel activation was screened for using either 30 µM or 100 µM concentrations of each of the six compounds, then dose responses were conducted as appropriate. […] Currents were recorded in response to voltage pulses between −120 or −80 mV and + 40 mV at 20 mV intervals from a holding potential of −80 mV, to yield current-voltage relationships, current magnitude, and for quantifying activation rate. We analyzed data using Clampfit (Molecular Devices) and Graphpad Prism software (GraphPad, San Diego, CA, USA); values are stated as mean ± SEM. […]

KCNQ2/KCNQ3-W265L = KCNQ2/KCNQ3-W265L (Homo sapiens, UniProt O43525+O43526, W265L); test: TEVC of KCNQ2/3 with KCNQ3-W265L mutation; type: cell-based
From the text: (§3) We generated cRNA transcripts encoding human KCNQ1, KCNQ2, KCNQ3, KCNQ4, KCNQ5 or GLRA1 (NM_001146040) (GenScript, Piscataway, NJ, USA) by in vitro transcription using the T7 polymerase mMessage mMachine kit (Thermo Fisher Scientific), after vector linearization, from cDNA sub-cloned into plasmids incorporating Xenopus laevis β-globin 5′ and 3′ UTRs flanking the coding region to enhance translation and cRNA stability. We quantified cRNA by spectrophotometry. We generated mutant KCNQ2 and KCNQ3 cDNAs by site-directed mutagenesis using a QuikChange kit (Stratagene, San Diego, CA) and prepared the corresponding cRNAs as above. […]
(§4) We performed TEVC at room temperature using an OC-725C amplifier (Warner Instruments, Hamden, CT) and pClamp10 software (Molecular Devices, Sunnyvale, CA) 2–5 days after cRNA injection as described in the section above. […] Currents were recorded in response to voltage pulses between −120 or −80 mV and + 40 mV at 20 mV intervals from a holding potential of −80 mV, to yield current-voltage relationships, current magnitude, and for quantifying activation rate. We analyzed data using Clampfit (Molecular Devices) and Graphpad Prism software (GraphPad, San Diego, CA, USA); values are stated as mean ± SEM. […]

KCNQ2 = KCNQ2 (Homo sapiens, UniProt O43526); test: [3H]GABA binding and competition, oocytes expressing KCNQ2; settings: 100 µM
KCNQ3* = KCNQ3* (Homo sapiens, UniProt O43525, A315T); test: [3H]GABA binding and competition, oocytes expressing KCNQ3*; settings: 100 µM
KCNQ3*-W265L = KCNQ3*-W265L (Homo sapiens, UniProt O43525, A315T/W265L); test: TEVC of homomeric KCNQ3*-W265L; type: cell-based
From the text: as §3, §4

KCNQ1 = KCNQ1 (Homo sapiens, UniProt P51787); test: TEVC of homomeric KCNQ1 expressed in Xenopus oocytes; type: cell-based; settings: dose response, ΔV0.5act
From the text: as §1, §2

EC50 (KCNQ5): 171 ± 112 nM | competition of GABA binding to KCNQ2 (KCNQ2): able to compete out GABA binding | competition of GABA binding to KCNQ3* (KCNQ3*): able to compete out GABA binding | maximal efficacy, KCNQ3*-W265L versus KCNQ3* (KCNQ3*-W265L): reduced by half | reduction of sensitivity by the W265L mutation versus KCNQ3* (KCNQ3*-W265L): 44 fold | effects on KCNQ1 (KCNQ1): negligible or much less potent effects
Structure (SMILES): CS(=O)(=O)N(CC(=O)O)c1cccc(F)c1 [3FMSG]
effect of the KCNQ3-W265L mutation within KCNQ2/3 (KCNQ2/KCNQ3-W265L): dependent on KCNQ3-W265; also recorded: eliminated effects of 3FMSG

Reference: PMC6825221, “In silico re-engineering of a neurotransmitter to activate KCNQ potassium channels in an isoform-specific manner” (Communications Biology, 2019)
